Patent publication US10919938B2, “Modified cyclopentapeptides and uses thereof” (TECHNISCHE UNIVERSITÄT MÜNCHEN, priority 2014, dated 2021)
Read-outs that look alike come from different tables or passages of the source. Values belong to the molecule of their own block, whether it stands above or below them. Non-standard residues stand in square brackets, D forms with d. Residues, ends and D or L forms follow the SMILES beside them. Groups on a side chain read outwards from the residue. *: point of attachment. DOTA(Ga) = O=C1CN2CCN3CCN(CC(=O)*)CCN(CC2)CC(=O)[O][Ga]([O]1)[O]C(=O)C3; DOTA = O=C(O)CN1CCN(CC(=O)O)CCN(CC(=O)*)CCN(CC(=O)O)CC1; 2Nal = N[C@@H](Cc1ccc2ccccc2c1)C(=O)O; dNMeOrn = CN[C@H](CCCN)C(=O)O; 4Amb = NCc1ccc(C(=O)O)cc1; 4Abz = Nc1ccc(C(=O)O)cc1; Ahx = NCCCCCC(=O)O

Assays:
hCXCR4 [1] = molecular target: T1, hCXCR4 (Homo sapiens, UniProt P61073); test: Determination of IC50: competition against [^125I]FC-131 on Jurkat cells; type: binding; settings: hCXCR4-expressing Jurkat T-cell leukemia cells, [^125I]FC-131 as radioligand, mean ± SD
T1 construct: endogenous in cells; host or cells: Jurkat human T lymphocyte cells
Experimental: (§1) After washing twice with 400 piL of cold PBS, the amount of bound radioligand was quantified using a γ-counter. Nonspecific binding was determined in the presence of 1 μM FC131. IC50 values were calculated using the PRISM 4 program (Graph Pad Software, San Diego, Calif.).

hCXCR4 [2] = molecular target: T1, hCXCR4; test: Determination of inverse IC50: radioiodinated peptides against standard competitor FC-131 on Jurkat cells; type: binding; settings: combining IC50 and inverse IC50 assays
Experimental: as §1
Experiments were performed in analogy the determination of IC50.

[3] = Determination of lipophilicity (octanol/PBS partition); type: physicochemical; settings: octanol / PBS pH 7.4, radiolabeled peptide
Experimental: To a solution of app. 2 kBq of radiolabeled peptide in 500 tiL of PBS (pH 7.4), 500 μL of octanol were added (n=6). Vials were vortexed vigorously for 3 min. To achieve quantitative phase separation, the vials were centrifuged at 14,000×g for 6 min in a Biofuge 15 (Heraeus Sepatech, Osterode, Germany). The activity concentrations in 100 μL-samples of both the aqueous and the organic phase were measured in a γ-counter. Both the partition coefficient Pow, which is defined as the molar concentration ratio of a single species A between octanol and an aqueous phase at equilibrium, and log Pow, which is an important parameter used to characterize lipophilicity of a compound, were calculated.

[4] = test system: Daudi (high CXCR4) and SU-DHL-8 (low CXCR4) xenografts; test: Dual tracer biodistribution study in tumor bearing SCID mice; settings: i.v., 1 h p.i.
Experimental: (§6) For the induction of tumor growth, female CB-17 SCID mice (6-8 weeks, Charles River, Sulzfeld, Germany) were injected subcutaneously with app. 5×10^6 Daudi (right shoulder) or SU-DHL-8 (left shoulder) cells suspended in 100 μL of a 1:1 (v/v) mixture of serum free culture medium and Matrigel (BD Biosciences, Heidelberg, Germany). Within 10-21 days, solid palpable tumors had grown (100-800 mg), and the animals were used for the experiments.
(§7) The animals were sacrificed 90 min post injection (p.i.), and the organs of interest were dissected. The radioactivity was measured in weighted tissue samples using a γ-counter. Data are expressed in % ID/g tissue (mean±SD).

[5] = test system: Daudi (high CXCR4) and SU-DHL-8 (low CXCR4) xenografts; settings: mouse, in vivo, iv
Experimental: as §6, §7

SH-SY5Y cells [6] = test: Dual tracer internalization study (adherent cells), SH-SY5Y; type: cell-based, human; settings: 30 min, 37° C., corrected for non-specific binding (100 μM AMD3100)
Experimental: (§2) 2·10^5 cells per well. On the day of the experiment, the culture medium was removed and the cells were washed once with 250 μL of unsupplemented medium before being left to equilibrate in 200 μL of assay medium at 37° C. for a minimum of 15 min before the experiment. […] (n=3 wells, respectively, per time point). Incubation was terminated by placing the plate on an ice pack for app. 1 min and by subsequent removal of the incubation medium. Cells were thoroughly rinsed with 250 μL of HBSS. After washing twice with 250 μL of ice cold acid wash buffer (0.02 M NaOAc buffered with AcOH to pH=5), cells were lysed with 250 μL of 1 N NaOH. The lysate was transferred to vials and combined with 250 μL of HBSS used for rinsing the wells. Quantification of the amount of free, acid-releasable and internalized activity was performed as described.

Daudi cells [7] = test: Dual tracer internalization study (suspension cells), Daudi; type: cell-based, human; settings: 30 min, 37° C., corrected for non-specific binding (100 μM AMD3100)
Experimental: (§3) The total sample volume was 250 μL. After incubation, the tubes were centrifuged (3 min, 1300 rcf, Megafuge 1.0, Heraeus Thermo Scientific), the supernatant was carefully removed and combined with 200 μL of ice cold HBSS used for washing the cells (free radioligand). To remove surface bound (acid releasable) radioactivity, cells were then washed twice with ice cold acid wash buffer (0.02 M NaOAc in saline buffered with AcOH to pH=5). Finally, the amount of internalized activity in the cell pellet as well as the fraction of free and acid releasable ^68Ga-activity were determined using a γ-counter.

MCF-7 cells [8] = test: Dual tracer internalization study (adherent cells), MCF-7; type: cell-based, human; settings: MCF-7, 30 min, 37° C., corrected for non-specific binding (100 μM AMD3100)
Experimental: as §2

SH-SY5Y cells [9] = test: Dual tracer externalization study (adherent cells), SH-SY5Y; type: cell-based, human
Experimental: (§4) In the experiment allowing ligand recycling 250 µL of assay medium were added to the wells (n=3). […] Subsequently, cells were incubated at 37° C. for 5, 15, 30 and 60 min, respectively. The supernatant was removed and combined with 250 μL of HBSS used for rinsing the cells. This fraction represents the amount of externalized ligand at the respective time point. The following lysis of the cells was performed as desribed for the internalization experiment.

Daudi cells [10] = test: Dual tracer externalization study (suspension cells), Daudi; type: cell-based, human
Experimental: (§5) To ensure receptor integrity, no acid wash was performed after this initial internalization incubation. Then, to determine the extent of ligand recycling, two different experiments were performed. In the experiment allowing ligand recycling, 250 μL of assay medium were added to each well. […] Experiments were carried out in triplicate for both experimental conditions. Subsequently, the cells were incubated for 5, 15, 30 and 60 minutes at 37° C. Then, the tubes were centrifuged, the supernatant was removed and combined with 250 μL of HBSS used for washing the cells. This fraction represents the amount of externalized ligand. The following steps, i.e. acid wash and quantification of the remaining cellular activity, were performed as described for the internalization experiment.

HT-29 cells [11] = test: Dual tracer externalization study (adherent cells), HT-29; type: cell-based, human
Experimental: as §4

Jurkat cells [12] = test: Dual tracer internalization study (suspension cells), Jurkat; type: cell-based, human
Experimental: as §3

[13] = test system: CXCR4 expressing cell lines; test: Dual tracer internalization studies in various human cancer cell lines; type: cell-based; settings: in all cell lines
Experimental: as §3
as §2, with “The lysate was transferred to vials and combined with 250 μL of HBSS used for rinsing the wells.” left out

HT-29 cells [14] = test: Dual tracer internalization study (adherent cells), HT-29; type: cell-based, human; settings: HT-29, 30 min, 37° C., corrected for non-specific binding (100 μM AMD3100)
Experimental: as §2

Jurkat cells [15] = test: Dual tracer externalization study (suspension cells), Jurkat; type: cell-based, human
Experimental: as §5

SUDHL-8 cells = test: Dual tracer internalization study (suspension cells), SUDHL-8; type: cell-based, human; settings: SUDHL-8, 30 min, 37° C., corrected for non-specific binding (100 μM AMD3100)
Experimental: as §3

DU-145 cells = test: Dual tracer internalization study (adherent cells), DU-145; type: cell-based, human; settings: DU-145, 30 min, 37° C., corrected for non-specific binding (100 μM AMD3100)
Experimental: as §2

MCF-7 cells [16] = test: Dual tracer externalization study (adherent cells), MCF-7; type: cell-based, human
Experimental: as §4

hCXCR4 [17] = molecular target: T1, hCXCR4; settings: stated in text as had been shown; cited from earlier work
[18] = recycling allowed (medium only)
[19] = recycling inhibited (100 μM AMD3100)

T1 sequence (P61073 whole entry): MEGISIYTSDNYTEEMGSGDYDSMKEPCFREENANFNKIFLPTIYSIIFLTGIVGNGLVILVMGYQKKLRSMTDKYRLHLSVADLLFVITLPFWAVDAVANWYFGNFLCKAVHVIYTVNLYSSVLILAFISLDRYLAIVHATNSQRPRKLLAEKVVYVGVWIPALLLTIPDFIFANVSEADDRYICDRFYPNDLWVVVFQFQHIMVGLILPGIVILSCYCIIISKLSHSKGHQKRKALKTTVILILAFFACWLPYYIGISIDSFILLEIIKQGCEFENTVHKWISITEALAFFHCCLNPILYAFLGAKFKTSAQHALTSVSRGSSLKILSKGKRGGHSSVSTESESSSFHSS

Molecule: yorn′(ABS, Ahx, DOTA, In)RNalG
- IC50 (hCXCR4 [1]): 26.5 ± 22.6 nM

Molecule: CN1C(=O)[C@@H](Cc2ccc(O)cc2)NC(=O)CNC(=O)[C@H](Cc2ccc3ccccc3c2)NC(=O)[C@H](CCCNC(=N)N)NC(=O)[C@H]1CCCNC(=O)c1ccc(CNC(=O)CN2CCN3CCN4CCN(CC2)CC(=O)[O][Ga]([O]C(=O)C3)[O]C(=O)C4)cc1 [yorn′(AMBS, DOTA, Ga)RNalG] (cyclo([2Nal]G[dY][dNMeOrn]([4Amb-DOTA(Ga)])R))
- increase in CXCR4 affinity by (radio)iodination, factor (hCXCR4 [2]): ~20

- Log PO/PBS [3]: −0.35
Molecule: cyclo(-D-Tyr^1[^125I]-Arg^2-Arg^3-Na1^4-Gly^5 [[^125I]FC-131, reference compound]

Molecule: yorn′(AMBS, DOTA, In)RNalG
- IC50 (hCXCR4 [1]): 44.9 ± 10.4 nM

- Log PO/PBS [3]: −1.37
Molecule: [^125I]yorn′(ABS, DOTA, In)RNalG

- Log PO/PBS [3]: −1.28
Molecule: [^125I]yorn′(ABS, G, DOTA, Lu)RNalG

- tumor-to-non-tumor ratios (in words) [4]: comparable
Molecule: CN1C(=O)[C@@H](Cc2ccc(O)cc2)NC(=O)CNC(=O)[C@H](Cc2ccc3ccccc3c2)NC(=O)[C@H](CCCNC(=N)N)NC(=O)[C@H]1CCCNC(=O)c1ccc(CNC(=O)CN2CCN(CC(=O)O)CCN(CC(=O)O)CCN(CC(=O)O)CC2)cc1 [yorn′(AMBS, DOTA, ^68Ga)RNalG, metal not drawn] (cyclo([dY][dNMeOrn]([4Amb-DOTA])R[2Nal]G))

- Log PO/PBS [3]: −1.39
Molecule: [^125I]yorn′(AMBS, DOTA, In)RNalG

Molecule: yorn′(DOTA, In)RNalG
- IC50 (hCXCR4 [1]): > 1000 nM

Molecule: yorn′(ABS, G, DOTA, Ga)RNalG
- IC50 (hCXCR4 [1]): 16.7 ± 3.28 nM

- Log PO/PBS [3]: −1.23
Molecule: [^125I]yorn′(ABS, Avs, DOTA, Lu)RNalG

- Log PO/PBS [3]: −1.38
Molecule: [^125I]yorn′(AMBS, DOTA, Lu)RNalG

Molecule: CN1C(=O)[C@@H](Cc2ccc(O)cc2)NC(=O)CNC(=O)[C@H](Cc2ccc3ccccc3c2)NC(=O)[C@H](CCCNC(=N)N)NC(=O)[C@H]1CCCNC(=O)c1ccc(NC(=O)CCCCCNC(=O)CN2CCN3CCN4CCN(CC2)CC(=O)[O][Ga]([O]C(=O)C3)[O]C(=O)C4)cc1 [yorn′(ABS, Ahx, DOTA, Ga)RNalG] (cyclo([2Nal]G[dY][dNMeOrn]([4Abz-Ahx-DOTA(Ga)])R))
- IC50 (hCXCR4 [1]): 30.3 ± 6.52 nM

- tumor-to-non-tumor ratios (in words) [5]: comparable
- Log PO/PBS [3]: −1.56
Molecule: [^125I]yorn′(AMBS, DOTA, Ga)RNalG
- Internalization efficiency (internalized activity in % of total cellular activity) (SH-SY5Y cells [6]): 57.3 ± 7.1 % of total cellular activity
- Internalization efficiency (internalized activity in % of total cellular activity) (Daudi cells [7]): 51.3 ± 4.4 % of total cellular activity
- Internalization efficiency (internalized activity in % of total cellular activity) (MCF-7 cells [8]): 37.6 ± 3.7 % of total cellular activity
- Residual internalized activity after a 60 min externalization incubation (SH-SY5Y cells [9]; [18]): 11.2 ± 2.5 % of total cellular activity at t = 0
- Residual internalized activity after a 60 min externalization incubation (SH-SY5Y cells [9]; [19]): 7.8 ± 1.0 % of total cellular activity at t = 0
- Residual internalized activity after a 60 min externalization incubation (Daudi cells [10]; [18]): 14.5 ± 2.0 % of total cellular activity at t = 0
- Residual internalized activity after a 60 min externalization incubation (Daudi cells [10]; [19]): 7.0 ± 0.5 % of total cellular activity at t = 0
- Residual internalized activity after a 60 min externalization incubation (HT-29 cells [11]; HT-29, recycling allowed (medium only)): 13.5 ± 2.6 % of total cellular activity at t = 0
- Residual internalized activity after a 60 min externalization incubation (HT-29 cells [11]; HT-29, recycling inhibited (100 μM AMD3100)): 10.5 ± 2.5 % of total cellular activity at t = 0
- ligand recycling (in words) (HT-29 cells [11]; HT-29 cells, nearly identical results for the other cell lines): almost no ligand recycling
- fraction of membrane bound activity versus internalized activity (in words) (Jurkat cells [12]; Jurkat cells, comparable for the other cell lines): considerably higher
- Internalization efficiency (internalized activity in % of total cellular activity) (Jurkat cells [12]; Jurkat, 30 min, 37° C., corrected for non-specific binding (100 μM AMD3100)): 27.4 ± 2.0 % of total cellular activity
- internalization compared to yorn′(AMBS, DOTA, ^68Ga)RNalG (in words) [13]: significantly higher internalization
- Internalization efficiency (internalized activity in % of total cellular activity) (HT-29 cells [14]): 77.9 ± 4.6 % of total cellular activity
- Residual internalized activity after a 60 min externalization incubation (Jurkat cells [15]; [18]): 8.0 ± 2.0 % of total cellular activity at t = 0
- Residual internalized activity after a 60 min externalization incubation (Jurkat cells [15]; [19]): 3.7 ± 1.3 % of total cellular activity at t = 0
- Internalization efficiency (internalized activity in % of total cellular activity) (SUDHL-8 cells): 29.9 ± 5.2 % of total cellular activity
- Internalization efficiency (internalized activity in % of total cellular activity) (DU-145 cells): 69.1 ± 18.2 % of total cellular activity
- Residual internalized activity after a 60 min externalization incubation (MCF-7 cells [16]; MCF-7, recycling allowed (medium only)): 10.4 ± 1.4 % of total cellular activity at t = 0
- Residual internalized activity after a 60 min externalization incubation (MCF-7 cells [16]; MCF-7, recycling inhibited (100 μM AMD3100)): 8.7 ± 1.1 % of total cellular activity at t = 0

Molecule: 3-iodo-D-Tyr^1-FC-131
- IC50 (hCXCR4 [17]): 1.3 nM
